In US10513521B2, “Compositions and methods for inhibiting BMP” (The Brigham and Women's Hospital, Inc., priority 2014, dated 2019):
Substitutions are numbered along the chain they refer to. Like-named read-outs stand apart in the source and are kept apart here.

How the values were obtained:
ALK2 [1] = target: T1, ALK2 (Homo sapiens, UniProt Q04771); test: TR-FRET enzymatic ALK kinase assay, ALK2
T1 sequence (Q04771 21-509): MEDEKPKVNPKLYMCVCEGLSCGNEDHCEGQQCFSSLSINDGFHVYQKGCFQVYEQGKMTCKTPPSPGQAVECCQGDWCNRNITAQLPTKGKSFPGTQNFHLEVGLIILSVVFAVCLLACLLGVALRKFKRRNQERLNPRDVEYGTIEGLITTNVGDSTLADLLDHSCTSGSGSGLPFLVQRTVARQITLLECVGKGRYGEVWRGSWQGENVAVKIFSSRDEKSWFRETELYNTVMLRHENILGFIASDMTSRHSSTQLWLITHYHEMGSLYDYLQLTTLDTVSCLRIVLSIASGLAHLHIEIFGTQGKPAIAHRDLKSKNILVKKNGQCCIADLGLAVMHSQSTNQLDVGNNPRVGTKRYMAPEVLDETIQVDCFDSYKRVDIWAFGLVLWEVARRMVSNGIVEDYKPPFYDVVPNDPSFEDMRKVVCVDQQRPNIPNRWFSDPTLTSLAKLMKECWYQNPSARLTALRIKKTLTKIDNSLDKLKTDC
Description: (§1) Briefly, the ALKs enzymatic assay was initiated by dispense 2.5 μl enzyme in 1× kinase reaction buffer. The assay plate was then added with compounds followed by incubation at room temperature for 10 minutes. Then 2.5 μl/well substrate was added.

ALK2 [2] = target: T2, ALK2 (Mus musculus, UniProt P37172); test: HTRF pSMAD1 cell-based ALK2 assay (C2C12 cells, BMP6 as agonist)
T2 construct: The C2C12 cell line was selected for the measurement of ALK2 activity using BMP6 as the agonist; host or cells: C2C12
T2 sequence (P37172 21-509): T1 sequence (Q04771 21-509) with M1V, P10Q, L121I, D162E, P310S
Description: 2. HTRF Cell-Based ALK1 and ALK2 Assays in 384-Well Plate Format We have developed a cell based ALK1 kinase assay and a cell-based ALK2 assay. The BAOEC cell line was employed for the measurement of ALK1 activity using BMP9 as the agonist. The C2C12 cell line was selected for the measurement of ALK2 activity using BMP6 as the agonist. The kinase specificity was defined by the specific cell line and agonist. The kinase activity was determined by the status of SMD 1/5/8 phosphorylation stimulated by the agonist.
HyClone Fetal Bovine Serum was obtained from GE healthcare life sciences (Logan, Utah). BMP6 and BMP9 were purchased from R&D System. […] The compound plates and the white solid MB assay plates were purchased from Greiner Bio-one (Monroe, N.C.).
HTRF optimization experiments were performed in 384 well plate format. […] Pre-starved cells were then plated in 384 well plate in the starvation medium (containing in 0.1% FBS). After 4 hours, compounds were added to the assay plate and incubated for 30 minutes. The assay plate was then added with BMP6 for C2C12 cells or BMP9 for BAOEC cells and incubated for 30 minutes.
HTRF assay was performed to measure the status of SMAD 1 phosphorylation after stimulated with the agonist (Table 3). This HTRF phospho SMAD1 cell assay was developed and optimized for the homogenous detection of phospho SMAD 1 levels in cells. […] The plate was incubated at room temperature for overnight.

ALK5 = target: T3, ALK5 (Homo sapiens, UniProt P36897); test: TR-FRET enzymatic ALK kinase assay, ALK5
T3 sequence (P36897 34-503): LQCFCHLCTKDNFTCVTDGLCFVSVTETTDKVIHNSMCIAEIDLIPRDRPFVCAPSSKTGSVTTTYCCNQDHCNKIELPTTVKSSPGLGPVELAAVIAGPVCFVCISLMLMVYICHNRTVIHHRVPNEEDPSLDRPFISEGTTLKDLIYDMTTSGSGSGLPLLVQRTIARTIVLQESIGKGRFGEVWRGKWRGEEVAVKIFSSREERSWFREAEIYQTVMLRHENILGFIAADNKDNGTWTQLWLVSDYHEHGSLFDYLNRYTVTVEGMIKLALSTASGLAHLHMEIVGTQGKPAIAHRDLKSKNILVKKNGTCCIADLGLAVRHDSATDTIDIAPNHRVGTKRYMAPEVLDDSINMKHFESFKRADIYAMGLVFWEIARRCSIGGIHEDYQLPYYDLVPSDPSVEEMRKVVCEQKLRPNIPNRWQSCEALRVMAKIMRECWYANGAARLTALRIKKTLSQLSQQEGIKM
Description: Six ALK kinase enzyme assays were developed for determination of compound activities on ALK1, ALK2, ALK3, ALK4, ALK5 and ALK6.
as §1

ALK1 = ALK1 (Homo sapiens, UniProt P37023); test: TR-FRET enzymatic ALK kinase assay, ALK1
Description: as §1

ALK3 = ALK3 (Homo sapiens, UniProt P36894); test: TR-FRET enzymatic ALK kinase assay, ALK3
Description: as §1

ALK4 = target: T4, ALK4 (Homo sapiens, UniProt P36896); test: TR-FRET enzymatic ALK kinase assay, ALK4
T4 sequence (P36896 24-505): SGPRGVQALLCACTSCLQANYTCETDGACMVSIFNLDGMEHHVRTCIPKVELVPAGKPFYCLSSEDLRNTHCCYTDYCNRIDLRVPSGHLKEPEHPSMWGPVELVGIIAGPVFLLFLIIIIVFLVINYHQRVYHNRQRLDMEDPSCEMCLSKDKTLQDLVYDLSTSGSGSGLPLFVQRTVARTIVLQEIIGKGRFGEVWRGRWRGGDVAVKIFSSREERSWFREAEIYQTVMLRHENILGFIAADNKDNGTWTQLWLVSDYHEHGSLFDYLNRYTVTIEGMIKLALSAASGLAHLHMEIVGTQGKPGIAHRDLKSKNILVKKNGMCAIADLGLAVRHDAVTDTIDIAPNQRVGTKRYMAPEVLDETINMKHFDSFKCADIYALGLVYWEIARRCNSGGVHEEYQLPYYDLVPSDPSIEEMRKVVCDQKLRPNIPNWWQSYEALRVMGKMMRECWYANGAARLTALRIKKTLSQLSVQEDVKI
Description: as §1

ALK6 = ALK6 (Homo sapiens, UniProt O00238); test: TR-FRET enzymatic ALK kinase assay, ALK6
Description: as §1

[3] = cell-based assay, BMP6, read-out: Cell IC50 BMP6
[4] = HTRF assay, BMP6 as agonist, C2C12 cells, read-out: BMP6 HTRF

Chain of ALK3 (P36894 24-532): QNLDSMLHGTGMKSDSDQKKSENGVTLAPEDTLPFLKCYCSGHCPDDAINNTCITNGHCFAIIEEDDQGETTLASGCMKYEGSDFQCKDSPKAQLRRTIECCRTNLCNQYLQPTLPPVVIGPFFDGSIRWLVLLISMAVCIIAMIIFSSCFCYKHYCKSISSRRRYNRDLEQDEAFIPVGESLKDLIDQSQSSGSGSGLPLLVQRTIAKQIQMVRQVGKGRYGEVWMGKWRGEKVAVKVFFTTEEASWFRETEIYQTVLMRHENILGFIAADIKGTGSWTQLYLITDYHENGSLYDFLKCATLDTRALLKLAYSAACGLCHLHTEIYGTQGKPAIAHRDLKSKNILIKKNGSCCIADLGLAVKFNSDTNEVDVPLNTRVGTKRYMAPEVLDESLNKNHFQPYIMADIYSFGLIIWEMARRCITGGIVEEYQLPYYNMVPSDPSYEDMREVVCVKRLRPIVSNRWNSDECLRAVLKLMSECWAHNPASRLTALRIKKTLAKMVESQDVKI
Chain of ALK6 (O00238 14-502): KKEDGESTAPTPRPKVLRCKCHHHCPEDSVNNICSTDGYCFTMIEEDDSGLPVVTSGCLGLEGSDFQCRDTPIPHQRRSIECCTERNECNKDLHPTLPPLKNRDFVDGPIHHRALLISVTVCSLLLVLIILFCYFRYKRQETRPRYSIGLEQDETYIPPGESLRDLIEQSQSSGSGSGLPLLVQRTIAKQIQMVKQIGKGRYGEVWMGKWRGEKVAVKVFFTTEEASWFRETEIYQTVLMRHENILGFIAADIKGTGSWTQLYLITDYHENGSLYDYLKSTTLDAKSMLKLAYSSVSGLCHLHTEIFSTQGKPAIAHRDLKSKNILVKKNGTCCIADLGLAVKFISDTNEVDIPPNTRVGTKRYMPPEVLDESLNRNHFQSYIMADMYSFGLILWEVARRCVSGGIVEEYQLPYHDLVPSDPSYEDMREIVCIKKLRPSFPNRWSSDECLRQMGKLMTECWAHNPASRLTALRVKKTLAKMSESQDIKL
Chain of ALK1 (P37023 22-503): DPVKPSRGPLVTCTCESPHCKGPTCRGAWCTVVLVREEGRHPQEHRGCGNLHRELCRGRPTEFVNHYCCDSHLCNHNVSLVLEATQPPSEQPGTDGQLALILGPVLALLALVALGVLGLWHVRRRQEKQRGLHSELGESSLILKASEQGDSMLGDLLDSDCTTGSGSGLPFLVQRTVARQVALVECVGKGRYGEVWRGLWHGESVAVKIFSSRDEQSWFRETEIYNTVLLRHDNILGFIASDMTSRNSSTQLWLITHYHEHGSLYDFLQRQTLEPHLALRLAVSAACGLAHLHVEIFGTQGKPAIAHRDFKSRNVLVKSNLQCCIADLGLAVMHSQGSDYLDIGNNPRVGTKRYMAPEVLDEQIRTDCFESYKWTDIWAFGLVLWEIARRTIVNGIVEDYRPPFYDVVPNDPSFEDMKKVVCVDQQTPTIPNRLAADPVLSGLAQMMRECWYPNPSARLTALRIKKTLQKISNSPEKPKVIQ

Row | SMILES | IC50 (ALK2 [1]) | IC50 (ALK2 [2]; [3]) | IC50 (ALK5) | IC50 (ALK1) | IC50 (ALK3) | IC50 (ALK4) | IC50 (ALK6) | IC50 (ALK2 [2]; [4])
1 | O=[S+]([O-])(c1cccc(-c2cnn3cc(-c4ccc(C5CCNCC5)cc4)cnc23)c1)C1CC1 [Compound 110, 3-(3-(cyclopropylsulfonyl)phenyl)-6-(4-(piperidin-4-yl)phenyl)pyrazolo[1,5-a]pyrimidine] | 50 nM | 710 nM | > 10000 nM | 480 nM | 3900 nM | > 10000 nM | > 10000 nM | 
2 | O=[S+]([O-])(c1cccc(-c2cnn3cc(-c4ccc(CCN5CCCCC5)cc4)cnc23)c1)C1CC1 [Compound 112, 3-(3-(cyclopropylsulfonyl)phenyl)-6-(4-(2-(piperidin-1-yl)ethyl)phenyl)pyrazolo[1,5-a]pyrimidine] | 79 nM | 8 nM | > 10000 nM | 1300 nM | 8100 nM | > 10000 nM | 9800 nM | 
3 | Cc1ccc(S(C)(=O)=O)cc1-c1cnn2cc(-c3ccc(N4[C@H](C)CNC[C@@H]4C)cc3)cnc12 [Compound 116, 6-(4-((2R,6S)-2,6-dimethylpiperazin-1-yl)phenyl)-3-(2-methyl-5-(methylsulfonyl)phenyl)pyrazolo[1,5-a]pyrimidine] | 2200 nM | 319 nM | > 10000 nM | > 10000 nM | > 10000 nM | > 10000 nM | > 10000 nM | 
4 | CS(=O)(=O)c1cccc(-c2cnn3cc(-c4ccc(C(F)(F)CN5CCCC5)cc4)cnc23)c1 [Compound 119, 6-(4-(1,1-difluoro-2-(pyrrolidin-1-yl)ethyl)phenyl)-3-(3-(methylsulfonyl)phenyl)pyrazolo[1,5-a]pyrimidine] | 210 nM | 1040 nM | > 10000 nM | 530 nM | > 10000 nM | > 10000 nM | > 10000 nM | 
5 | CS(=O)(=O)c1cccc(-c2cnn3cc(-c4ccc(C(F)(F)CN5CCCCC5)cc4)cnc23)c1 [Compound 120, 6-(4-(1,1-difluoro-2-(piperidin-1-yl)ethyl)phenyl)-3-(3-(methylsulfonyl)phenyl)pyrazolo[1,5-a]pyrimidine] | > 10000 nM | 3600 nM | > 10000 nM | > 10000 nM | > 10000 nM | > 10000 nM | > 10000 nM | 
6 | CS(=O)(=O)c1cccc(-c2cnn3cc(-c4ccc(C(F)(F)CN5CCOCC5)cc4)cnc23)c1 [Compound 121, 4-(2,2-difluoro-2-(4-(3-(3-(methylsulfonyl)phenyl)pyrazolo[1,5-a]pyrimidin-6-yl)phenyl)ethyl)morpholine] | 350 nM | 836 nM | > 10000 nM | 690 nM | > 10000 nM | > 10000 nM | > 10000 nM | 
7 | CS(=O)(=O)c1cccc(-c2cnn3cc(-c4ccc(C(F)(F)CN5CCNCC5)cc4)cnc23)c1 [Compound 122, 6-(4-(1,1-difluoro-2-(piperazin-1-yl)ethyl)phenyl)-3-(3-(methylsulfonyl)phenyl)pyrazolo[1,5-a]pyrimidine] | 250 nM | 2 nM | > 10000 nM | 370 nM | > 10000 nM | > 10000 nM | > 10000 nM | 
8 | CC(O)c1cccc(-c2cnn3cc(-c4ccc(CN5CCCCC5)cc4)cnc23)c1 (stereo not drawn) [Compound 124, 1-(3-(6-(4-(piperidin-1-ylmethyl)phenyl)pyrazolo[1,5-a]pyrimidin-3-yl)phenyl)ethanol] | 100 nM | 5.38 nM | > 10000 nM | 440 nM | > 10000 nM | > 10000 nM | > 10000 nM | 
9 | O=[S+]([O-])(c1cccc(-c2cnn3cc(-c4ccc(CN5CCCCC5)cc4)cnc23)c1)C1CC1 [Compound 125, 3-(3-(cyclopropylsulfonyl)phenyl)-6-(4-(piperidin-1-ylmethyl)phenyl)pyrazolo[1,5-a]pyrimidine] | 66 nM | < 1 nM | > 10000 nM | 430 nM | > 10000 nM | > 10000 nM | 8400 nM | 
10 | CS(=O)(=O)c1cccc(-c2cnn3cc(-c4ccc(OC5(CN6CCCCC6)CC5)cc4)cnc23)c1 [Compound 134, 3-(3-(methylsulfonyl)phenyl)-6-(4-(1-(piperidin-1-ylmethyl)cyclopropoxy)phenyl)pyrazolo[1,5-a]pyrimidine] | 45 nM |  | > 10000 nM | 270 nM | 1400 nM | > 10000 nM | > 10000 nM | 270 nM
11 | CC(O)c1cccc(-c2cnn3cc(-c4ccc(C5(C)CCNCC5)cc4)cnc23)c1 (stereo not drawn) [Compound 136, 1-(3-(6-(4-(4-methylpiperidin-4-yl)phenyl)pyrazolo[1,5-a]pyrimidin-3-yl)phenyl)ethanol] | 57 nM |  | > 10000 nM | 220 nM | 2900 nM | > 10000 nM | > 10000 nM | 380 nM
12 | C[C@@H](O)c1cccc(-c2cnn3cc(-c4ccc(OC5(CN6CCCCC6)CC5)cc4)cnc23)c1 [Compound 152, (R)-1-(3-(6-(4-(1-(piperidin-1-ylmethyl)cyclopropoxy)phenyl)pyrazolo[1,5-a]pyrimidin-3-yl)phenyl)ethanol] | 54 nM |  | > 10000 nM | 590 nM | 1300 nM | > 10000 nM | 5600 nM | 450 nM
